“Also recorded” adds a separate entry of the source.
Assays:
[1] = test system: mouse mid-jejunal closed loops; experiment: Closed mid-jejunal loop fluid absorption in mice; assay type: in vivo; conditions: 10 µM intraluminal, 30 min
Description: Female CD1 mice (age 8-10 weeks) were given free access to Pedialyte (per liter: Na^+ 45 mEq, Cl^- 35 mEq, K^+ 20 mEq, dextrose 25 g; Abbott, Abbot Park, IL) but not solid food for 48 h before experiments. Mice were treated with 500 µL mineral oil once a day rectally (last dose 12 h before surgeries) during this period to evacuate the colon. Closed intestinal loops were isolated as described. Mice were anesthetized with isoflurane and body temperature was maintained during surgery at 36-38° C. using a heating pad. A small abdominal incision was made to expose the distal colon, and one closed distal colonic loop (length 1.5-2 cm) was isolated with sutures in each mouse. Loops were injected with 100 µL phosphate-buffered saline (PBS, pH: 7.4, in mM: 137 NaCl, 2.7 KCl, 8 Na2HPO4, 1.8 KH2PO4, 1 CaCl2, 0.5 MgCl2) without and with 10 µM Compound A1 and/or 10 µM tenapanor (MedChemExpress, Monmouth Junction, NJ). The abdominal incision was closed with sutures, and mice were allowed to recover from anesthesia. Colonic loops were removed at 0 and 60 min (in separate mice) and loop length and weight were measured to quantify fluid absorption. Luminal fluid was emptied with a syringe and pH was measured immediately using AB15 pH Meter (Thermo Fisher Scientific, South San Francisco, CA). In separate studies, mid-jejunal loops (length 2-3 cm, 3-4 loops per mouse) were isolated as described above, injected with 100 µL PBS without or with 10 µM Compound A1 and/or 10 µM tenapanor, and excised at 0 and 30 min to measure loop length and weight.

[2] = biological target: T1, (human) SLC26A3 (Homo sapiens, UniProt P40879); experiment: SLC26A3-mediated Cl-/I- exchange in HEK cells expressing SLC26A3 and YFP; assay type: cell-based
T1 construct: host or cells: HEK293 cells transduced with lentivirus, then transfected with YFP
T1 sequence (P40879 1-764): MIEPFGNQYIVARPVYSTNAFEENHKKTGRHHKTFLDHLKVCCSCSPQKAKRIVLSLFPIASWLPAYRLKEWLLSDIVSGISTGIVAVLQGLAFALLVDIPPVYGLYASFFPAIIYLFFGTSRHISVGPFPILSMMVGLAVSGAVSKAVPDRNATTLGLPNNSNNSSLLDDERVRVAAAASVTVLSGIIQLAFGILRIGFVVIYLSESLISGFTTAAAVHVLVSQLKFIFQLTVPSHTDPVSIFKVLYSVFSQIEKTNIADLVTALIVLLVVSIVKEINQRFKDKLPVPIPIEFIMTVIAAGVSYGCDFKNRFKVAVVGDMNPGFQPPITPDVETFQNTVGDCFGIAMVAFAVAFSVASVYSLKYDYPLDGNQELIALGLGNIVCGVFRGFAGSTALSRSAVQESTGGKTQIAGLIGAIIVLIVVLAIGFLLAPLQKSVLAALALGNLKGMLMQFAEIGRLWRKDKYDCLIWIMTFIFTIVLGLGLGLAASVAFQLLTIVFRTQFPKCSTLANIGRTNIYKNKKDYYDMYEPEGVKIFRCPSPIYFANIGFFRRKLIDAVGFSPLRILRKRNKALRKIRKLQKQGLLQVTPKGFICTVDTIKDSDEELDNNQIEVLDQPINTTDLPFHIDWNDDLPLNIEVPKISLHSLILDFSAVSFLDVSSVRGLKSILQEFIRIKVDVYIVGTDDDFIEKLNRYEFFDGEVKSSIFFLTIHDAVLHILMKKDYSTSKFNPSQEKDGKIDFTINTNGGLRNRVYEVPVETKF
Description: Inhibition of (human) SLC26A3 by Compound A1 was also tested, using a HEK cell model expressing SLC26A3 and YFP.
To generate a cell line enriched for expression of SLC26A3, HEK293 cells were transduced with lentiviral particles generated with the pLVX-IRES-mCherry-SLC26A3 transfer vector and then transfected to express YFP.
HEK293 cells transfected with pIRES-YFP-slc26a9 were plated in 96-well black-walled, clear-bottom tissue culture plates (Corning Life Sciences, Tewksbury, MA) after coating with FNC Coating Mix (AthenaES, Baltimore, MD). […] Assays of slc26a9-mediated anion exchange were done by initially recording YFP fluorescence prior to addition of 100 µL of NaI-substituted PBS to test wells, with the initial rate of Cl^-/I^- exchange deduced from fluorescence intensity by single exponential regression. […] To assay SLC26A3 function, HEK293 cells transduced with lentiviral particles generated from the pLVX-IRES-mCherry-SLC26A3 transfer vector were transfected to express YFP for Cl^-/I^- exchange assays as described above; red fluorescence images were acquired to confirm SLC26A3 expression in cells. […]

Cc1c(CC(=O)O)c(=O)oc2c(C)c(OCc3cccc(Br)c3)ccc12 [Compound A1]
loop weight/length ratio (fluid absorption), mid-jejunal loops [1]: did not produce significant changes; also recorded: not in jejunal loops | luminal fluid pH, mid-jejunal loops [1]: did not alter acidification | IC50 ([2]; HEK cells): ~250 nM | extent of inhibition of SLC26A3-mediated Cl-/I- exchange ([2]; higher concentrations): complete inhibition
